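Compound exposure: 48 hours, 5 concentrations, 96-well plates. GI50 marks 50% less growth.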 Active and inactive are the calls of the source. Rule as the data show it: active = GI50 up to about 1.1 µM and inactive = higher.
Legend:
Assay in all cases: DTP human tumour cell line panel, 48 h
PC-3 = tested on: PC-3
MDA-MB-231 = tested on: MDA-MB-231
OVCAR-4 = tested on: OVCAR-4
MOLT-4 = tested on: MOLT-4
SK-MEL-28 = tested on: SK-MEL-28
HCT-15 = tested on: HCT-15
SK-MEL-2 = tested on: SK-MEL-2
MCF7 = tested on: MCF7
SK-OV-3 = tested on: SK-OV-3
NCI/ADR-RES = tested on: NCI/ADR-RES
A549 = tested on: A549
NCI-H522 = tested on: NCI-H522
RPMI-8226 = tested on: RPMI-8226
786-0 = tested on: 786-0
EKVX = tested on: EKVX
SF-539 = tested on: SF-539
SW-620 = tested on: SW-620
UACC-62 = tested on: UACC-62
HOP-62 = tested on: HOP-62
K562 = tested on: K562

Structure (SMILES) | GI50 (PC-3) | GI50 (MDA-MB-231) | GI50 (OVCAR-4) | GI50 (MOLT-4) | GI50 (SK-MEL-28) | GI50 (HCT-15) [µM] | GI50 (SK-MEL-2) | GI50 (MCF7) | GI50 (SK-OV-3) | GI50 (NCI/ADR-RES) | GI50 (A549) | GI50 (NCI-H522) | GI50 (RPMI-8226) | GI50 (786-0) | GI50 (EKVX) | GI50 (SF-539) | GI50 (SW-620) | GI50 (UACC-62) | GI50 (HOP-62) | GI50 (K562)
CN(C)c1ccc(C(c2ccc(N(C)C)cc2)c2ccc([N+](=O)[O-])cc2)cc1 | > 100 µM (inactive) | > 100 µM (inactive) | > 100 µM (inactive) | > 100 µM (inactive) | > 100 µM (inactive) | > 100 | > 100 µM (inactive) | > 100 µM (inactive) | > 100 µM (inactive) | > 100 µM (inactive) | > 100 µM (inactive) | > 100 µM (inactive) | 15.1 µM (inactive) | > 100 µM (inactive) | > 100 µM (inactive) | > 100 µM (inactive) | > 100 µM (inactive) | > 100 µM (inactive) | > 100 µM (inactive) | > 100 µM (inactive)
CCSc1cc2c(cc1O)CC[C@@H]1[C@@H]2CC[C@]2(C)[C@@H](O)CC[C@@H]12 | 5.71 µM (inactive) | 4.94 µM (inactive) | 18.3 µM (inactive) | 4.98 µM (inactive) | 14.2 µM (inactive) | 5.68 | 16.3 µM (inactive) | 10.3 µM (inactive) | 17.8 µM (inactive) | 5.18 µM (inactive) | 4.3 µM (inactive) | 6.61 µM (inactive) | 8.17 µM (inactive) | 12.2 µM (inactive) | – | 15.8 µM (inactive) | 3.47 µM (inactive) | 11.2 µM (inactive) | 15.7 µM (inactive) | 4.12 µM (inactive)
CN1C/C(=C\c2ccc(Cl)cc2)C(=O)/C(=C/c2ccc(Cl)cc2)C1 | 1.77 µM (inactive) | 1.12 µM (active) | 1.11 µM (active) | 0.326 µM (active) | 3.78 µM (inactive) | 0.731 | > 88.9 µM (inactive) | 0.453 µM (active) | – | 1.37 µM (inactive) | 2.2 µM (inactive) | 1.97 µM (inactive) | 0.193 µM (active) | 0.354 µM (active) | 15.6 µM (inactive) | 0.512 µM (active) | 0.386 µM (active) | 2.22 µM (inactive) | 2.68 µM (inactive) | 0.33 µM (active)
C/C=C/COc1cc(NC(=S)OC(C)C)ccc1Cl.C/C=C\COc1cc(NC(=S)OC(C)C)ccc1Cl | 16.3 µM (inactive) | 23.8 µM (inactive) | 16.8 µM (inactive) | 14.8 µM (inactive) | 17.6 µM (inactive) | 17.3 | 13.6 µM (inactive) | 19.8 µM (inactive) | 21.9 µM (inactive) | 16 µM (inactive) | 15.6 µM (inactive) | 14.1 µM (inactive) | 70.1 µM (inactive) | 17.3 µM (inactive) | 12.6 µM (inactive) | 19.8 µM (inactive) | 17.1 µM (inactive) | 15.8 µM (inactive) | 20 µM (inactive) | –
CCCCCCCCCCCC(=O)c1c(O)cc(C)oc1=O | 27.2 µM (inactive) | 28.8 µM (inactive) | – | 23.1 µM (inactive) | 75 µM (inactive) | 41.7 | 56.4 µM (inactive) | 37.8 µM (inactive) | 64.6 µM (inactive) | 33.4 µM (inactive) | 27.8 µM (inactive) | 42.4 µM (inactive) | > 100 µM (inactive) | 80.9 µM (inactive) | 38.5 µM (inactive) | 23.8 µM (inactive) | 41.1 µM (inactive) | 49.7 µM (inactive) | 60 µM (inactive) | 28.6 µM (inactive)
CCOP(=O)(CCCC(O)CNc1cc(Cl)nc(N)n1)OCC (configuration not stated) | > 100 µM (inactive) | > 100 µM (inactive) | > 100 µM (inactive) | > 100 µM (inactive) | > 100 µM (inactive) | > 100 | > 100 µM (inactive) | > 100 µM (inactive) | > 100 µM (inactive) | > 100 µM (inactive) | > 100 µM (inactive) | > 100 µM (inactive) | > 100 µM (inactive) | > 100 µM (inactive) | > 100 µM (inactive) | > 100 µM (inactive) | > 100 µM (inactive) | > 100 µM (inactive) | > 100 µM (inactive) | > 100 µM (inactive)
O/N=C/C1c2ccccc2-c2ccccc21 | 17.2 µM (inactive) | 14.6 µM (inactive) | – | 24 µM (inactive) | 15.7 µM (inactive) | 19.5 | 17.1 µM (inactive) | 16 µM (inactive) | 14.4 µM (inactive) | 16.8 µM (inactive) | 19.2 µM (inactive) | 16.9 µM (inactive) | 21.5 µM (inactive) | 3.7 µM (inactive) | 13.6 µM (inactive) | 16.2 µM (inactive) | 16.6 µM (inactive) | 15 µM (inactive) | 17.9 µM (inactive) | 29.9 µM (inactive)
COc1cc2c(=O)cnoc2cc1O | > 100 µM (inactive) | > 100 µM (inactive) | > 100 µM (inactive) | > 100 µM (inactive) | > 100 µM (inactive) | > 100 | > 100 µM (inactive) | > 100 µM (inactive) | > 100 µM (inactive) | > 100 µM (inactive) | > 100 µM (inactive) | > 100 µM (inactive) | > 100 µM (inactive) | > 100 µM (inactive) | > 100 µM (inactive) | > 100 µM (inactive) | > 100 µM (inactive) | > 100 µM (inactive) | – | > 100 µM (inactive)
CC(=O)O[C@H]1C(=O)[C@@]2(C)[C@H]([C@H](OC(=O)c3ccccc3)[C@]3(O)C[C@H](OC(=O)[C@H](OC(=O)OCCC(O)CO)[C@@H](NC(=O)c4ccccc4)c4ccccc4)C(C)=C1C3(C)C)[C@]1(OC(C)=O)CO[C@@H]1C[C@@H]2O (some centres not stated) | < 0.0128 µM (active) | < 0.0135 µM (active) | 17.4 µM (inactive) | < 0.0109 µM (active) | – | 0.303 | 29 µM (inactive) | < 0.01 µM (active) | 0.0104 µM (active) | 3.56 µM (inactive) | < 0.0103 µM (active) | < 0.01 µM (active) | < 0.01 µM (active) | 0.0105 µM (active) | 0.037 µM (active) | < 0.01 µM (active) | < 0.01 µM (active) | < 0.01 µM (active) | < 0.01 µM (active) | < 0.01 µM (active)
CCCNC(=O)Nc1ccc2c(c1)Cc1cc(N(CCCl)CCCl)ccc1-2 | 25.2 µM (inactive) | 28.4 µM (inactive) | – | – | 11.5 µM (inactive) | 16.5 | 29.2 µM (inactive) | 8.73 µM (inactive) | – | 36.2 µM (inactive) | 23.9 µM (inactive) | 17.6 µM (inactive) | 25.4 µM (inactive) | 34.6 µM (inactive) | 18.6 µM (inactive) | 5.53 µM (inactive) | 28.6 µM (inactive) | 21.9 µM (inactive) | 81.5 µM (inactive) | 10.9 µM (inactive)
c1ccc2c(c1)CC1COc3ccccc3C1O2 (configuration not stated) | 70.6 µM (inactive) | 47.4 µM (inactive) | – | 30.3 µM (inactive) | – | 40.2 | 44.6 µM (inactive) | 45.2 µM (inactive) | > 100 µM (inactive) | 47.8 µM (inactive) | 50.1 µM (inactive) | 57.4 µM (inactive) | 27.5 µM (inactive) | 50.7 µM (inactive) | 48.3 µM (inactive) | > 100 µM (inactive) | 46.8 µM (inactive) | > 100 µM (inactive) | 56.6 µM (inactive) | > 100 µM (inactive)
N#Cc1c(-c2ccccc2)c(C#N)c(=S)n(C2OCC(O)C(O)C2O)c1N (configuration not stated) | > 100 µM (inactive) | > 100 µM (inactive) | – | > 100 µM (inactive) | > 100 µM (inactive) | > 100 | > 100 µM (inactive) | > 100 µM (inactive) | > 100 µM (inactive) | > 100 µM (inactive) | > 100 µM (inactive) | > 100 µM (inactive) | > 100 µM (inactive) | > 100 µM (inactive) | – | > 100 µM (inactive) | > 100 µM (inactive) | > 100 µM (inactive) | > 100 µM (inactive) | > 100 µM (inactive)
CC(C)(C)c1cc(/C=C/C(=O)CC(=O)/C=C/c2cc(C(C)(C)C)c(O)c(C(C)(C)C)c2)cc(C(C)(C)C)c1O | > 50 µM (inactive) | > 50 µM (inactive) | > 50 µM (inactive) | – | > 50 µM (inactive) | > 50 | > 50 µM (inactive) | > 50 µM (inactive) | > 50 µM (inactive) | > 50 µM (inactive) | > 50 µM (inactive) | > 50 µM (inactive) | > 50 µM (inactive) | > 50 µM (inactive) | > 50 µM (inactive) | > 50 µM (inactive) | > 50 µM (inactive) | > 50 µM (inactive) | > 50 µM (inactive) | –
Cc1ccc(/C=C2\NC(=S)N(CN3CCCCC3)C2=O)cc1 | 61.4 µM (inactive) | > 100 µM (inactive) | 39.4 µM (inactive) | 93.3 µM (inactive) | 79.3 µM (inactive) | 36.1 | > 100 µM (inactive) | 28.4 µM (inactive) | > 100 µM (inactive) | 57.7 µM (inactive) | 51.2 µM (inactive) | 35.8 µM (inactive) | 32.2 µM (inactive) | 47.3 µM (inactive) | 46.3 µM (inactive) | – | 28.9 µM (inactive) | 33.3 µM (inactive) | > 100 µM (inactive) | 43 µM (inactive)
C#CC1=CC(=O)C(OC)=CC1=O | 53.2 µM (inactive) | 16.4 µM (inactive) | – | 3.25 µM (inactive) | 37.2 µM (inactive) | 16.4 | 15.7 µM (inactive) | 14.8 µM (inactive) | > 100 µM (inactive) | 32.9 µM (inactive) | 33.9 µM (inactive) | 1.77 µM (inactive) | 17.8 µM (inactive) | 3.01 µM (inactive) | 23.3 µM (inactive) | 42.7 µM (inactive) | 17.5 µM (inactive) | 15.7 µM (inactive) | 16.5 µM (inactive) | 5.06 µM (inactive)

— ChEMBL document CHEMBL1201862, “PubChem BioAssay data set” (2004)
